System: full-length cation receptor (CaR) from the dogfish shark
Assay: Dogfish shark CaR expressed in human HEK cells, response to ionic composition of extracellular fluid
Format: cell-based
Settings: extracellular fluid bathing HEK cells; range from freshwater to seawater
From the text: Polyvalent cation-sensing receptors (PVCRs) serve as salinity sensors in fish. These receptors are localized to the apical membranes of various cells within the fish's body (e.g., in the gills, intestine, kidney) that are known to be responsible for osmoregulation. A full-length cation receptor (CaR) from the dogfish shark has been expressed in human HEK cells. […] The ionic concentrations responded to encompassed the range which includes the transition from freshwater to seawater. Expression of PVCR mRNA is also modulated in fish after their transfer from freshwater to seawater, and is modulated by PVCR agonists.

SMILES | Receptor response to alterations in ionic composition
[Ca+2] [Ca^2+, calcium] | respond to alterations
[Mg+2] [Mg^2+, magnesium] | respond to alterations
[Cl-].[Na+] [NaCl, sodium chloride] | respond to alterations

From patent US7584718B2, “Growing marine fish in fresh water” (MariCal, Inc., priority 2000, dated 2009)
